Assay results taken from patent US6767890B1, “Peptides having anti-cancer and anti-inflammatory activity” (priority 1998, dated 2004).

How the values were obtained:
[1] = system: Protein Kinase C, Non-Select.; experiment: Protein Kinase C, Non-Select. enzyme assay; assay type: biochemical, rat; details: 300.0 μM; average of duplicate; negative = stimulation
Description: (§1) The peptide was further screened in vitro in a variety of enzyme and biochemical assays. Methods employed were adapted from the scientific literature to maximize reliability and reproducibility. The primary literature reference for each assay is listed in Table 11 opposite the results for each assay.
(§2) Results presented in Table 10, “Results,” are the average of duplicate determinations, unless otherwise noted.
(§3) Reference compounds were tested concurrently at 5 concentrations as an integral part of each assay to ensure the validity of the results obtained.
(§4) Enzyme assays were performed under conditions described in Table 8, “Experimental Conditions.”. The commercial suppliers and catalog numbers of substrates employed in this study are given in Table 7, “Material Sources.” The name, commercial source, and catalog numbers of concurrent reference compounds (controls) employed in this study are given in Table 9, “Reference Compound Data.” The reaction catalyzed by each enzyme is listed in Table 8, “Experimental Conditions.”
(§5) Biochemical assay results are presented in Table 10, as the percent inhibition of specific binding or activity, and unless noted are the average of duplicate tubes tested at each concentration.

[2] = biological target: T1, Interleukin-6 (Homo sapiens, UniProt P08887); experiment: Interleukin-6 radioligand binding; details: 10.0 μM; specific binding of [125I]Interleukin-6; negative = stimulation
T1 construct: human U266; endogenous in cells; host or cells: U266 cells
T1 sequence (P08887 20-468): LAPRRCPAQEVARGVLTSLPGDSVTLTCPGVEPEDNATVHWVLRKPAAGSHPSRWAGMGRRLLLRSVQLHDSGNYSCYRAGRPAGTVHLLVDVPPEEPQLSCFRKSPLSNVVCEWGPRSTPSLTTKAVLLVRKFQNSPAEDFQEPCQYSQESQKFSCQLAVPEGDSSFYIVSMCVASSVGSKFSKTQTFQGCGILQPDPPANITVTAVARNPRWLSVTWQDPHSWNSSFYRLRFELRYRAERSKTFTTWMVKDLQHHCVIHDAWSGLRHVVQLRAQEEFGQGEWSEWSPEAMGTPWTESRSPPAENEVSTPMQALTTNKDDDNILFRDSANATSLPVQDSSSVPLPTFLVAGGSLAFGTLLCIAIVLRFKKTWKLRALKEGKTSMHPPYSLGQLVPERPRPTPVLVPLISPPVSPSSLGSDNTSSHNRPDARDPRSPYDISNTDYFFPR
Description: as §1, §2
Reference compounds were tested concurrently at 5 concentrations as an integral part of each assay to ensure the validity of the results obtained. […]
(§6) Maximum total binding and nonspecific binding were determined each time each assay was run. […]
(§7) Where inhibition constants (Ki) are presented, the Ki values were calculated using the equation of Cheng and Prusoff (Cheng, Y., Prusoff, W. H., Biochem. Pharmacol. […], 1973) using the observed IC50 of the tested compound, the concentration of radioligand employed in the assay, and the historical values for the Kd of the ligand (obtained experimentally). Where presented, the Hill Coefficient (nH), defining the scope of the competitive binding curve, was calculated using GraphPad Prism. […] Where IC50, Ki, and/or Hill Slope data is presented without Standard Error of the Mean (SEM), data are insufficient to be quantitative, and the values presented (Ki, IC50, nH) should be interpreted with caution. […]

[3] = system: Adjuvant Induced Arthritis; experiment: Adjuvant Induced Arthritis Model; assay type: in vivo; details: rat, 20 mg per KG body weight orally once per day for 14 days, Day 14
Description: Adjuvant Induced Arthritis Model: Male Sprague-Dawley rats (160-180 g) were sensitized by injecting Fruend's Complete Adjuvant (0.5% suspension of killed mycobacterium tuberculosis (H37RA, Difco in mineral oil)). 0.05 ml was administered intradermally at a plantar site on the right hind leg of each rat. The test materials were given orally (by gavage) in 0.5% methylcelluose, at a dose level of 20 milligrams per kilo body weight, and given once per day for 14 days. The administration was started the day after sensitization. The left hind paw was measured just before sensitization and on Day 14, and the plantar edema inhibitory rate and the body weight gain rate were determined in comparison with the nonsensitized rat groups. The paw weights for each group in each test run were averaged. Activity was calculated as follows: [formula]
The Anti-inflammatory response is the difference in the mean foot volume. […] FIG. 4.

[4] = biological target: T2, 5-Lipoxygenase (Rattus norvegicus, UniProt P12527); experiment: 5-Lipoxygenase enzyme assay; assay type: biochemical; details: 30.0 μM; average of duplicate; negative = stimulation
T2 construct: rat RBL-1 cells; endogenous in cells; host or cells: RBL-1 cells
T2 sequence (P12527 whole entry): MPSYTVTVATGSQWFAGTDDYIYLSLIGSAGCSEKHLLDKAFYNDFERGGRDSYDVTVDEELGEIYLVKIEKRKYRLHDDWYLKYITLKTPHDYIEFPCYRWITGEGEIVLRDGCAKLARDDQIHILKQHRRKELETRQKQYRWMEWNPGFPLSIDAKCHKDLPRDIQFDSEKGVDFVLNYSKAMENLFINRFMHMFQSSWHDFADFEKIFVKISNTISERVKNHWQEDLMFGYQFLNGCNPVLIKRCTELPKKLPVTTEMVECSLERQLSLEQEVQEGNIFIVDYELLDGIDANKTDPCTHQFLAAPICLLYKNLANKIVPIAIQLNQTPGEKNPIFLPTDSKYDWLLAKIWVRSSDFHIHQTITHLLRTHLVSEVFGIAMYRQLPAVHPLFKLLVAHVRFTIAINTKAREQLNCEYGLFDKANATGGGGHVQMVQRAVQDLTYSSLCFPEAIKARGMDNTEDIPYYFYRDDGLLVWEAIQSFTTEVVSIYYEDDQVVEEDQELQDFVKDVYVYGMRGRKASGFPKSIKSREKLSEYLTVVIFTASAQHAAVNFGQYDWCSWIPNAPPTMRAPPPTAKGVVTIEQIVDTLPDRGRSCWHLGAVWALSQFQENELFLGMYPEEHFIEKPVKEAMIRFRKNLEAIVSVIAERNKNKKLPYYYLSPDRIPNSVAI
Description: Unless otherwise indicated, the peptide was tested in duplicate at the concentrations indicated for each assay.

[5] = biological target: T3, Histamine H3 (Rattus norvegicus, UniProt Q9QYN8); experiment: Histamine H3 radioligand binding; details: 10.0 μM; specific binding of [3H]NAMH; negative = stimulation
T3 construct: rat brain; from tissue; host or cells: rat brain
T3 sequence (Q9QYN8 whole entry): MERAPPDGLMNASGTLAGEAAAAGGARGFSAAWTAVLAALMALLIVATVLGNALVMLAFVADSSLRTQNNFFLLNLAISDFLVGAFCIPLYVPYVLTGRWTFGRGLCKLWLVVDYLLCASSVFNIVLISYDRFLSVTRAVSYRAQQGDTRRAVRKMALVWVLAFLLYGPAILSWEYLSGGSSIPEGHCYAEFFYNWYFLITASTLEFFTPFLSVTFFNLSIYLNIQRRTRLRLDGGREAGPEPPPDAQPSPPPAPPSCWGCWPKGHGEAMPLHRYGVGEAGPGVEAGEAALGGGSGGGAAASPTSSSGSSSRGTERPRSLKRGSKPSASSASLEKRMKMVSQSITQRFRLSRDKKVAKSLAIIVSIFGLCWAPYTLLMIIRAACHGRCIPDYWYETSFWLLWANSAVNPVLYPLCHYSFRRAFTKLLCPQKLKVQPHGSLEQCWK
Description: as §1, §2, §3
Radioligand binding assays were performed under conditions described in Table 8, “Experimental Conditions.” Radioligands employed in this study are given in Table 8, and commercial sources and catalog numbers of the radioligands are provided in Table 7, “Material Sources.” Unlabeled, blocking ligands employed this study are listed in Table 8, “Experimenal Conditions,” along with the commercial sources and catalog number of the unlabeled ligand. The concurrent reference compound (control) employed in each assay is listed in Table 9, “Reference Compound Data,” along with the commercial supplier and catalog number of the compound. […]
as §6, §7

[6] = system: Sarcoma 180 tumor; experiment: Anti-Cancer Activity Against Mouse Tumor Sarcoma 180; assay type: in vivo; details: 10 mg/kg, listed as natural peptide
Description: This model has been used extensively as indicative of neovascularization in mammals inasmuch as the tumor so implanted is quickly vascularizing.
Experimental Design: All mice were weighed at test initiation and test termination. The animals were divided into three groups. The Sarcoma 180 tumor was made up from a passage mouse to furnish […] per 0.1 mL inoculum. The cells were injected into the left leg hamstring muscle mass. The was delivered to the mice by I.P. injections, or gavage on days 1-5.
At the termination of the experiments, the mice were weighed and the left rear leg was amputated at the thigh. The skin was removed from the leg to expose the site at which the tumor was located. […].

[7] = biological target: T4, Collagenase IV (Homo sapiens, UniProt P14780); experiment: Collagenase IV enzyme assay; assay type: biochemical; details: 100.0 μM; average of duplicate; negative = stimulation
T4 construct: human U937; endogenous in cells; host or cells: U937 cells
T4 sequence (P14780 94-707): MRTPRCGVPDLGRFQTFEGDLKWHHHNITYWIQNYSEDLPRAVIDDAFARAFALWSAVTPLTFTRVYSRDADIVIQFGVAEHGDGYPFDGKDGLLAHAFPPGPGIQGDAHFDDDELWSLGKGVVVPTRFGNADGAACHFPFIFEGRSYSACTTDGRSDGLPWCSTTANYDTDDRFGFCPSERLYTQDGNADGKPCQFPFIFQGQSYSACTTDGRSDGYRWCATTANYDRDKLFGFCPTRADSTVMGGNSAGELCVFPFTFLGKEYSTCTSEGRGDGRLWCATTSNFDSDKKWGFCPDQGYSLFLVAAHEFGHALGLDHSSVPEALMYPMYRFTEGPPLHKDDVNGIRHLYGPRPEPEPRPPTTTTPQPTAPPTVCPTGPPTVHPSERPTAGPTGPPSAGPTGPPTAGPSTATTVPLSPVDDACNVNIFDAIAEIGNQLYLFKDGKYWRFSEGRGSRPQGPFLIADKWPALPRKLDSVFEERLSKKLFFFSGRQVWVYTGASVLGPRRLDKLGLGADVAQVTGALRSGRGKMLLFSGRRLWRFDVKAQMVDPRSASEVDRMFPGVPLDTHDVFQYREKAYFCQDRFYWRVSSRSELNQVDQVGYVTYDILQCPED
Description: as §1, §2, §3, §4, §5

[8] = biological target: T5, Leukotriene B4 (Homo sapiens, UniProt Q15722); experiment: Leukotriene B4 radioligand binding; details: 10.0 μM; specific binding of [3H]LTB4; negative = stimulation
T5 construct: human U937; endogenous in cells; host or cells: U937 cells
T5 sequence (Q15722 whole entry): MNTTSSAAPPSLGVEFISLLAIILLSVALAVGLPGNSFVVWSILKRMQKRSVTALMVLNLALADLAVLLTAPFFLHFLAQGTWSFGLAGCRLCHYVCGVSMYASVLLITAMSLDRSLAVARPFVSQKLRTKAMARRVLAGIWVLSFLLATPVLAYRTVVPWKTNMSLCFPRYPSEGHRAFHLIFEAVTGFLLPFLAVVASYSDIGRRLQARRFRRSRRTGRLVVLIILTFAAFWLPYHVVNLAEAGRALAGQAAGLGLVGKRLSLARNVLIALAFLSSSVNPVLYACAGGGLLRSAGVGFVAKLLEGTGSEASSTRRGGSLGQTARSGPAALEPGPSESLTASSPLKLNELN
Description: The peptide was further screened in vitro in a variety of enzyme and biochemical assays. Methods employed were adapted from the scientific literature to maximize reliability and reproducibility.
as §2
Radioligand binding assays were performed under conditions described in Table 8, “Experimental Conditions.” Radioligands employed in this study are given in Table 8, and commercial sources and catalog numbers of the radioligands are provided in Table 7, “Material Sources.” Unlabeled, blocking ligands employed this study are listed in Table 8, “Experimenal Conditions,” along with the commercial sources and catalog number of the unlabeled ligand. The concurrent reference compound (control) employed in each assay is listed in Table 9, “Reference Compound Data,” along with the commercial supplier and catalog number of the compound. Where receptors have been obtained through recombinant expression techniques, the species from which the cDNA was obtained, and the type of expression system employed (mammalian, insect, bacterial) is also given Table 7.
Maximum total binding and nonspecific binding were determined each time each assay was run. Nonspecific binding was defined as the proportion of total binding not displaced by unlabeled ligand specific for the receptor. […]

LEU-PRO-PRO-SER-ARG [Peptide]
% Inhibition [1]: −6%
% Inhibition [2]: 13%
anti-inflammatory response (percent inhibition) [3]: 116.3%
% Inhibition [4]: 0%
% Inhibition [5]: −13%
% tumor inhibition ([6]; I.P. injections or gavage on days 1-5, 6 mice): 99.0%
Mean tumor wt. gain, gm ([6]; net tumor weight, I.P. injections or gavage on days 1-5, 6 mice): 0.03 gm
% Inhibition [7]: 2%
% Inhibition [8]: 8%
